Measurements from patent publication US8742141B2, “Inhibition and treatment of prostate cancer metastasis” (Northwestern University, priority 2008, dated 2014).
Entries after “also recorded” stand apart in the source; their conditions may differ.

Columns and labels:
PC3-M or PC3 cells = assay: Cell invasion assay, compounds of Example 7; type: cell-based, human; conditions: 10 μM of compound
Method: (§1) Assays were conducted using methods as described in Craft et al. (2008, Mol. Pharmocol., 73(1):235-242; herein incorporated by reference in its entirety).
(§2) The anti-metastatic activity of the compounds of Example 7 was tested using the procedure of Example 2. Specifically, PC3-M or PC3 cells were treated with 10 μM of compound (for invasion, FIG. 9) or a range of concentrations (for growth inhibition, FIG. 10). For invasion, values are the mean±SD number of invading cells, as a percent of untreated controls, from N=3 separate assays run at different times (each assay was in replicates of N=4). Cell viability was determined by MTT assay as recited in Kyle et al., Mol. Pharmacol, 51(2):193-200 (1997); herein incorporated in its entirety. Values are the mean±SD of N=2 separate assays run at different times (N=3 for each assay), and are the percent of untreated controls.

PC3-M cells = assay: Cell invasion assay, compounds 21-48; type: cell-based, human; conditions: 10 μM of compound
Method: as §1
as §2, with “of” for “of the”, “21-26” for “of Example 7”, “PC3-M” for “PC3-M or PC3”, “11)” for “9)”, “12).” for “10).”, “incorporated by reference” for “incorporated”
as §2, with “of” for “of the”, “31-38” for “of Example 7”, “PC3-M” for “PC3-M or PC3”, “13)” for “9)”, “14).” for “10).”, “incorporated by reference” for “incorporated”
as §2, with “of” for “of the”, “41-48” for “of Example 7”, “PC3-M” for “PC3-M or PC3”, “15)” for “9)”, “16).” for “10).”, “incorporated by reference” for “incorporated”

[1] = test system: PC3-M human prostate cancer cells; assay: 3-day growth inhibition MTT assay; type: cell-based; conditions: range of concentrations
Method: PC3-M human prostate cancer cells were treated with different concentrations of the indicated compound, and then MTT reduction as an indicator of cell viability was measured according to the method of Example 9.
The anti-metastatic activity of compounds 21-26 was tested using the procedure of Example 2. Specifically, PC3-M cells were treated with 10 μM of compound (for invasion, FIG. 11) or a range of concentrations (for growth inhibition, FIG. 12). For invasion, values are the mean±SD number of invading cells, as a percent of untreated controls, from N=3 separate assays run at different times (each assay was in replicates of N=4). Cell viability was determined by MTT assay as recited in Kyle et al., Mol. Pharmacol, 51(2):193-200 (1997); herein incorporated by reference in its entirety. […]
The anti-metastatic activity of compounds 31-38 was tested using the procedure of Example 2. […] Cell viability was determined by MTT assay as recited in Kyle et al., Mol. Pharmacol, 51(2):193-200 (1997); herein incorporated by reference in its entirety. […]
The anti-metastatic activity of compounds 41-48 was tested using the procedure of Example 2. […] Cell viability was determined by MTT assay as recited in Kyle et al., Mol. Pharmacol, 51(2):193-200 (1997); herein incorporated by reference in its entirety. […]

[2] = test system: Estrogen receptor (ER) positive human MCF-7 breast cancer cells; assay: Expression of estrogen responsive genes (TFF1, PGR, CPSD) in MCF-7 cells; type: cell-based; conditions: 0.1-50 μM, 24 hours, hormone-free conditions
Method: (§3) The genes were: TFF1 (trefoil factor 1; also known as pS2), PGR (progesterone receptor), and CPSD (cathepsin D). Gene expression was measured by isolating RNA, and performing real time quantitative reverse transcription/polymerase chain reaction (qRT/PCR), using exon spanning primers (purchased from Applied Biosystems). The expression of GAPDH was also measured, and used to normalize the expression of ER responsive genes. Data below are the mean±SD of a single experiment, performed in duplicate. […] Additionally, the ability of compound 46 to activate an ER promoter-luciferase reporter vector construct after transient transfection of the human ER positive breast cancer cell line, MCF-7, was evaluated (FIG. 31). […] “No associated control cells” were transfected with an identical vector construct that lacked the estrogen response element, i.e., noERE.

[3] = test system: PC3-M, PC3, 1542CPTX, 1532CPTX, 1532NPTX, and 1542NPTX cells; assay: Cell invasion assay, invasion time extended to 16 hours; type: cell-based, human; conditions: invasion assay time 16 hours
Method: as §1
Expanded studies were performed on compound 46. Cell invasion assays conducted using the procedure of Example 2 utilized control, genistein-treated, and compound 46-treated PC3-M, PC3, 1542CPTX, 1532CPTX, 1532NPTX, and 1542NPTX cells (FIG. 17, FIG. 28). This allowed assay conditions to be adjusted so as to optimize assessment of differences between these three treatment conditions. In particular, the invasion assay time was extended from 14 to 16 hours.

[4] = Stability after radiation and autoclaving; type: physicochemical
Method: Successful scale-up of synthesis of compound 46 was conducted according to the methods of Examples 7, 11, and the Detailed Description, yielding 10 g of material that is >98% pure (by HPLC).

[5] = test system: PC3, PC3-M, 1532CPTX, 1542CPTX, 1532NPTX, and 1542NPTX; assay: Growth inhibition MTT assay in different cell lines; type: cell-based, human; conditions: range of concentrations
Method: Growth inhibition assays were performed with different cell lines using the procedure of Example 2. Specifically, cell lines (PC3, PC3-M, 1532CPTX, 1542CPTX, 1532NPTX, and 1542NPTX) were treated with a range of concentrations of compound 46 (FIG. 18, FIG. 29). Cell viability was determined by MTT assay as recited in Kyle et al., Mol. Pharmacol, 51(2):193-200 (1997); herein incorporated by reference in its entirety. Data are the mean±SEM of a single experiment, performed in triplicate.

[6] = Short-term animal toxicity study, oral gavage; type: in vivo; conditions: 0.15, 1.5, 15, or 150 mg/kg body weight/day, 5 days
Method: Six week old athymic male mice were dosed by oral gavage with 0.15, 1.5, 15, or 150 mg KBU2046/kg body weight/day, or vehicle control, daily for 5 days. There were 3 mice per dose level.

[7] = test system: ER promoter-luciferase reporter vector construct; assay: ER promoter-luciferase reporter assay in MCF-7 cells; type: cell-based, human; conditions: 10 μM
Method: as §3

## O=c1c(-c2ccccc2)coc2ccccc12 [Compound 1]
PC3-M or PC3 cells
  inhibition of cell invasion (anti-metastatic activity): did not show any significant inhibition of cell invasion

## O=c1c(-c2ccc(O)cc2)coc2cc(O)cc(O)c12 [Compound 8]
PC3-M or PC3 cells
  inhibition of cell invasion (anti-metastatic activity): did not show any significant inhibition of cell invasion

## O=c1oc2cc(O)cc(O)c2cc1-c1ccc(O)cc1 [Compound 17]
PC3-M or PC3 cells
  inhibition of cell invasion (anti-metastatic activity): did not show any significant inhibition of cell invasion

## O=C1c2c(O)cc(O)cc2OCC1c1ccc(O)cc1 (centres unmarked) [Compound 22, 5,7,4′-trihydroxyisoflavanone]
PC3-M cells
  anti-invasion efficacy: retain anti-invasion efficacy
[1]
  cell growth inhibition (MTT): little-to-no effect upon cell growth inhibition

## COc1ccc(-c2cc3c(OC)cc(OC)cc3oc2=O)cc1 [Compound 23]
PC3-M cells
  anti-invasion efficacy: loss of activity

## CC(=O)Oc1ccc(-c2cc3c(OC(C)=O)cc(OC(C)=O)cc3oc2=O)cc1 [Compound 24]
PC3-M cells
  anti-invasion efficacy: loss of activity

## O=c1oc2cc(O)cc(O)c2cc1-c1ccc(O)cc1 [Compound 25]
PC3-M cells
  anti-invasion efficacy: loss of activity

## O=c1c(-c2cccc(Cl)c2)coc2ccccc12 [Compound 38, 3′-chloroisoflavone]
PC3-M cells
  anti-invasion efficacy: anti-invasive
[1]
  cell growth inhibition (MTT): growth inhibitory effects

## O=C1c2ccccc2OCC1c1ccc(F)cc1 (centres unmarked) [Compound 46, 4′-fluoroisoflavanone]
[2]
  estrogenic activity (expression of estrogen responsive genes): no estrogenic activity
[3]
  anti-invasion efficacy compared to genistein: greater efficacy than genistein; also recorded: greater anti-invasion efficacy compared to genistein
[4]; after exposure to 40 kGy of radiation
  compound stability: stability was documented
[4]; after exposure to high temperatures and pressures (autoclaving)
  compound stability: stability was documented
[5]
  toxicity in growth inhibition assay (MTT cell viability): less toxic than genistein, and in fact shows no toxicity; also recorded: no cell toxicity
[6]
  toxicity: no evidence of toxicity
[7]
  luciferase activity: no effect
